Results on five compounds are retold here after patent US20140243351A1, “DRUG FOR THE TREATMENT OF ALLERGIC RHINITIS COMPRISING PGD2 ANTAGONIST AND HISTAMINE ANTAGONIST” (Shionogi & Co., Ltd., priority 2011, published 2014).

Where two headings read alike, the source gives them in different places. Marks after values point to notes of the source that are not given here.

In assay [1] the test system is patients with seasonal allergic rhinitis. Put plainly: Evaluation test on pharmacological efficacy on patients with seasonal allergic rhinitis (daytime nasal symptom scores).
Description: Each of the groups was asked to take each preparation in accordance with the following medication schedule. Thereafter, each of the patients was daily evaluated on daytime nasal symptoms, e.g. sneezing attacks, nasal discharge, nasal congestion, and nasal itching, in accordance with the following evaluation criteria. The results were analyzed. The lower the nasal symptom scores, more alleviated the nasal symptoms.
The medication was scheduled for a total of about 6 to 18 weeks, including a screening period of from 0 days to 12 weeks, a placebo introducing period of from 4 to 7 days, an ingestion period for each preparation of 4 weeks, and a post-observation period of 1 week.
Here, the evaluation criteria for sneezing, nasal discharge, and nasal congestion were conducted in 5-ranks from scores 0 to 4, and the evaluation criterion for nasal itching was conducted in 4-ranks of scores 0 to 3.
As to the nasal symptoms evaluated by each patient, average scores/day at time points 1, 2, 3, and 4 weeks after the administration, and the week just before the administration (for example, at a time point of 2 weeks after the administration refers to a one-week period from one week after the administration to the second week) were calculated, and changes since the start of the test were calculated and used in analysis. Here, in the between-group comparison distribution of the background factors, Fisher's exact test was used for nominal scale data, and Kruskal-Wallis test was used for continuous data or ordinal scale data. In both tests, the significance levels were set at 0.15 on both sides. In the analyses of nasal symptom items, the between-group comparison according to covariance analysis of an average change after two weeks from the administration, the between-group comparison according to covariance analysis of a change on a weekly basis, the between-group comparison of a change on a weekly basis using a linear model, and the between-group comparison according to chi-square test of improvement rate on a weekly basis were conducted. In all the comparisons, the significance level was set at 0.05 on both sides. In addition, as to the changes of nasal symptoms on a weekly basis, the between-group comparison according to covariance analysis for changes on a weekly basis using a linear model was conducted. Further, the between-group comparison according to chi-square test of improvement rate of each of the daytime nasal symptoms on a weekly basis was conducted. In the covariance analysis for a change on a weekly basis, in cases where data each week were not measured, the data were supplemented according to Last Observation Carried Forward (LOCF) method.
For assay [2], the system named is guinea pig rhinitis model induced with PGD2 and histamine. In words: Evaluation Test 3, guinea pig rhinitis model induced with PGD2 and histamine, nasal airway resistance. The format is in vivo. Conditions: oral, each agent at 10 mg/kg; about 10 minutes after PGD2 + histamine challenge. The source says: The pharmacological efficacy evaluation was made using 9 to 12 week-old male Harley guinea pigs in the following manner. Specifically, the guinea pigs were divided into the following groups: Group 1: Control Group (a group administered with a medium alone to a guinea pig); […] [table]

In assay [3] the test system is guinea pig rhinitis model. In words: Evaluation Test 1, guinea pig rhinitis model (OVA), nasal airway resistance, Formula (I) + fexofenadine hydrochloride. Type of assay: in vivo. Conditions: single, 20 minutes after OVA challenge. On the procedure: Guinea pig rhinitis models were generated by causing rhinitis-inflammation in 5 to 6 week-old male Harley guinea pigs in the following manner. Concretely, on day 0, the guinea pigs were intraperitoneally administered with cyclophosphamide diluted with physiological saline at 30 mg/kg. Two days later (on day 2), a mixed solution of aluminum hydroxide gel (10 mg), ovalbumin (OVA) (1 mg) and physiological saline was intraperitoneally administered to establish active sensitization. Thereafter, on day 9, a 1% OVA solution dissolved in physiological saline was intranasally challenged by 20 μL each to both the nostrils. Further, on day 16, a 2% OVA solution dissolved in physiological saline was intranasally challenged by 10 μL each to both the nostrils, thereby generating guinea pig rhinitis models that caused rhinitis-inflammation. Here, a control group that serves as a control was intranasally challenged by physiological saline in place of intranasally challenging by the OVA solution.
Specifically, prepared were the following: […]
Next, on day 23, a test substance listed in Table 7 was orally administered using a 0.5% methylcellulose (MC) solution as a medium, and one hour thereafter a 2% OVA solution dissolved in physiological saline was intranasally challenged by 10 μL each to both the nostrils (Group 1 was intranasally challenged by physiological saline in place of intranasal challenge by the OVA solution), and the nasal airway resistance was evaluated and analyzed. […] Here, nasal airway resistance (nRaw) is an average of specific airway resistance (sRaw) of 200 times or more breathing, and the analyzed values used in the comparisons of pharmacological efficacy are expressed as a percent change based on the nasal airway resistance measured before the intranasal challenge (100%) (IAR: immediately airway response). In addition, the between-group comparison was carried out according to one-sided t test, and the suppression percentage to Group 2 (Vehicle Group) was calculated by the following formula: […]

For assay [4], the system named is seasonal allergic rhinitis patients. Conditions: after two weeks, cited from earlier work; for change in nasal symptom scores per symptom from the placebo group: sneezing, nasal discharge, nasal congestion, nasal itching.
For assay [5] the test system is unchanged. In words: Clinical test (Ph 2, protocol 077) on seasonal allergic rhinitis, Non-Patent Publication 1. Conditions: beclomethasone versus loratadine, change per symptom from placebo. The format is in vivo, human. The text has this: For example, Journal of Asthma, 46, 878-883, 2009 (Non-Patent Publication 1) describes clinical test results (Ph 2, protocol 077) on seasonal allergic rhinitis for a patient group administered with montelukast as an LT receptor antagonist, a patient group administered with loratadine as a histamine H1 receptor antagonist, and a patient group administered with beclomethasone as an intranasal steroid (see Table 3 in the publication). Here, the nasal symptoms, i.e. sneezing, nasal discharge, nasal congestion, and nasal itching, after two weeks since the start of the oral administration are scored to be evaluated.
Furthermore, Table 3 of Non-Patent Publication 1 describes clinical test results on seasonal allergic rhinitis for an intranasal steroid agent beclomethasone and a histamine H1 receptor antagonist loratadine. According to the publication, it can be seen that a change in scores of nasal symptoms, i.e. sneezing, nasal discharge, nasal congestion, and nasal itching, after two weeks since the start of the oral administration, per symptom from the placebo group is such that the change in a loratadine group is 0.31, i.e. a difference between 0.53 and 0.22, and that the change in a beclomethasone group is 0.48, i.e. a difference between 0.70 and 0.22. In other words, it can be seen that the intranasal steroid agent was 1.55 times effective of the histamine H1 receptor antagonist. […]

Assay [6] shares this test system. Particulars: after two weeks; cited from earlier work.
Assay [7] has the same test system. Particulars: after two weeks; montelukast 10 mg, loratadine 10 mg, combination 10 mg each; cited from earlier work.
Where [8] appears, read: after two weeks from administration.

For the compound `Cl.Cl.O=C(O)COCCN1CCN(C(c2ccccc2)c2ccc(Cl)cc2)CC1` (racemic) [Cetirizine Hydrochloride, 2-(2-{4-[(RS)-(4-chlorophenyl)phenylmethyl]piperazin-1-yl}ethoxy)acetic acid dihydrochloride], in assay [1] (setting [8]), the “Change in Nasal Congestion Scores, Difference with Placebo Group” value is on record as −0.13; the “Change in Nasal Discharge Scores, Difference with Placebo Group” value is recorded as −0.31**; the “Change in Nasal Itching Scores, Difference with Placebo Group” value was −0.28**; the “Change in Sneezing Scores, Difference with Placebo Group” value is on record as −0.34***. Also, the “Change in Total of Three Nasal Symptom Scores, Difference with Placebo Group” value (“Change in Total … Difference with Placebo Group” below) in assay [1] (after two weeks from administration, dihydrochloride) was −0.73**. For the same compound, the “Change in Total … Difference with Placebo Group” value in assay [1] (after two weeks from administration, listed as cetirizine, dihydrochloride) is 0.73. In assay [1] (after two weeks, worked out from Table 2), the “change per symptom (total of three nasal symptom scores, from the placebo group)” value was determined as 0.24. Further, in assay [2], the “suppression percentage of nasal airway resistance increase” value was 20%.
For `CC(C)(C(=O)O)c1ccc(C(O)CCCN2CCC(C(O)(c3ccccc3)c3ccccc3)CC2)cc1.Cl` (racemic) [fexofenadine hydrochloride, (±)-2-{4-[1-hydroxy-4-[4-(hydroxydiphenylmethyl)piperidino]butyl]phenyl}-2-methylpropanoic acid monohydrochloride], the “suppression percentage of nasal airway resistance increase” value in assay [3] (Group 5, fexofenadine hydrochloride 20 mg/kg oral) is on record as 15%.
Take `CC(C)Oc1ccc(S(=O)(=O)N2CCN(c3ccc(-c4ncco4)c(OCC(=O)O)c3)CC2)cc1` [Formula (I), [2-(oxazol-2-yl)-5-(4-{4-[(propan-2-yl)oxy]phenylsulfonyl}piperazin-1-yl)phenoxy]acetic acid]: in assay [1] (setting [8]), the “Change in Nasal Congestion Scores, Difference with Cetirizine Hydrochloride Group” value is −0.03; the “Change in Nasal Congestion Scores, Difference with Placebo Group” value was −0.16*; the “Change in Nasal Discharge Scores, Difference with Cetirizine Hydrochloride Group” value amounted to 0.13; the “Change in Nasal Discharge Scores, Difference with Placebo Group” value is −0.19**. In addition, in assay [1] (setting [8]), the “Change in Nasal Itching Scores, Difference with Cetirizine Hydrochloride Group” value is 0.21**; the “Change in Nasal Itching Scores, Difference with Placebo Group” value is on record as −0.06; the “Change in Sneezing Scores, Difference with Cetirizine Hydrochloride Group” value is recorded as 0.23**; the “Change in Sneezing Scores, Difference with Placebo Group” value is on record as −0.11. In assay [1] (setting [8]), the “Change in Total of Three Nasal Symptom Scores, Difference with Cetirizine Hydrochloride Group” value was 0.28 and the “Change in Total … Difference with Placebo Group” value is −0.45*. The “suppression percentage of nasal airway resistance increase” value in assay [2] was 32%. The “suppression percentage of nasal airway resistance increase” value in assay [3] (Group 3, Formula (I) 1 mg/kg oral) is on record as 21%. In addition, in assay [3] (Group 4, Formula (I) 10 mg/kg oral), the “suppression percentage of nasal airway resistance increase” value is 47%.
Take `C[C@H]1C[C@H]2[C@@H]3CCC4=CC(=O)C=C[C@]4(C)[C@@]3(Cl)[C@@H](O)C[C@]2(C)[C@@]1(O)C(=O)CO` [beclomethasone]: in assay [4], the “change in nasal symptom scores per symptom since the start of the administration” value is listed as 0.70 and the “change in nasal symptom scores per symptom from the placebo group” value is on record as 0.48. Moreover, the “effect of intranasal steroid agent relative to histamine H1 receptor antagonist” value in assay [5] is 1.55 times.
In the case of `CCOC(=O)N1CCC(=C2c3ccc(Cl)cc3CCc3cccnc32)CC1` [loratadine, ethyl 4-(8-chloro-5,6-dihydro-11H-benzo[5,6]cyclohepta[1,2-b]pyridin-11-ylidene)-1-piperidinecarboxylate], in assay [6], the “change per symptom of the nasal symptom scores since the start of the administration” value is 0.40 and the “change per symptom of the nasal symptom scores, based on the placebo group” value was 0.09. Also, in assay [7], the “change per symptom of the nasal symptom scores since the start of the administration” value is 0.34 and the “change per symptom of the nasal symptom scores, based on the placebo group” value is 0.09. In assay [4], the “change in nasal symptom scores per symptom since the start of the administration” value was 0.53 and the “change in nasal symptom scores per symptom from the placebo group” value is given as 0.31.
